Results taken from patent US20240262842A1, “SMALL MOLECULE INHIBITORS OF KRAS G12C MUTANT” (Merck Sharp & Dohme LLC, priority 2021, published 2024).
Like-named read-outs stand apart in the source and are kept apart here.

Experiments:
[1] = target: T1, interaction between GMPPNP-bound recombinant K-Ras4B G12C mutant protein and cRAF RAS-binding domain (cRAF-RBD) (Homo sapiens, UniProt P01116, G12C); experiment: Inhibitory activity on interaction between KRAS G12C and cRAF (Alpha technology); conditions: Table 2
T1 construct: His-tag (N)
Description: Interaction between recombinant K-Ras4B G12C mutant protein (amino acids 1-169, SEQ ID NO:2) and cRAF RAS-binding domain (cRAF-RBD, amino acids 50-132, Jena Biosciences GmbH) was measured using Alpha technology (PerkinElmer Inc.).
Recombinant KRAS G12C protein with an N-terminal His-tag was expressed in E. coli and purified by affinity chromatography. To prepare GTP-bound form and GDP-bound form of KRAS G12C protein, 50 μM KRAS G12C protein was incubated with 1 mM GMPPNP (Guanosine-5′-[(β,γ)-imido]triphosphate, Tetralithium salt) (Jena Bioscience GmbH) and 1 mM GDP, respectively, in a loading buffer (20 mM Tris-HCl (pH 7.5), 50 mM NaCl, 1 mM DTT and 2.5 mM EDTA) for 1 hour on ice. After the incubation, MgCl2 was added to a final concentration of 10 mM, followed by incubation at room temperature for 30 minutes. The mixture was allowed to pass through a NAP-5 column to remove free nucleotides and purified, and the resultant nucleotide-bound KRAS G12C protein was used for compound evaluation.
For the measurement of the inhibitory activity of compounds on interaction between KRAS G12C and cRAF-RBD, GMPPNP-bound KRAS G12C protein was incubated with various concentrations of compound in a reaction buffer (20 mM Tris-HCl (pH 7.5), 100 mM NaCl, 1 mM MgCl2, 1 mM TCEP, 0.1% Tween 20) at 25° C. for 1 hour. After the incubation, recombinant cRAF-RBD and Alpha detection reagents were added and incubated at room temperature for 1.5 hours for binding. Interaction of KRAS G12C and cRAF-RBD was monitored by measuring Alpha signal. Inhibition % was calculated using the signal from the reaction without test compound (DMSO control) as 0% inhibition and the signal from the reaction using GDP-bound KRAS G12C in place of GMPPNP-bound KRAS G12C as 100% inhibition. IC50 values were calculated from dose titration curve using curve fitting by XLfit software (IDBS).

MIA PaCa-2 cells = experiment: Growth inhibition activity on KRAS-G12C mutant cell line (CellTiter-Glo 3D); format: cell-based, human; conditions: MIA PaCa-2, 3-day culture with compound; Table 3
Description: MIA PaCa-2 cells (given by Sumitomo Dainippon Pharma Co., Ltd.), which are a KRAS-G12C mutant human pancreas cancer cell line, were suspended in a 10% fetal bovine serum-containing RPMI1640 medium (manufactured by Fujifilm Wako Pure Chemical Corporation). The cell suspension was seeded into each well of a 384-well U bottom microplate and cultured in an incubator containing 5% CO2 gas at 37° C. for 1 day. The compounds obtained in the “Preparation of Compounds” section were used as test compounds and were dissolved in DMSO, respectively, and each test compound was diluted with DMSO to give a concentration 500 times the final concentration. The resultant solution of the test compound in DMSO was diluted with the medium used for suspending cells and added to each well of the cell-culture plate to give a DMSO final concentration of 0.2%, followed by culture in an incubator containing 5% CO2 gas at 37° C. for another 3 days. The cell count after 3-day culture in the presence of the test compound was measured using CellTiter-Glo 3D Reagent (manufactured by Promega Corporation). All wells were added with CellTiter-Glo 3D Reagent and mixed for 10 minutes. 30 minutes after mixing, luminescence was measured by a plate reader. The growth inhibition rate was calculated from the following equation, and the concentration of the test compound at which 50% inhibition was achieved (IC50 (nM)) was determined.
[formula] • T: the emission intensity in a well into which a test compound was added. • C: the emission intensity in a well into which a test compound was not added.

[2] = IC50, GMPPNP-bound KRAS G12C incubated with compound 25° C. 1 hour
[3] = GMPPNP-bound KRAS G12C incubated with compound 25° C. 1 hour, read-out: IC50

T1 sequence (P01116 with tags, fused parts or gaps isoform P01116-2 G12C): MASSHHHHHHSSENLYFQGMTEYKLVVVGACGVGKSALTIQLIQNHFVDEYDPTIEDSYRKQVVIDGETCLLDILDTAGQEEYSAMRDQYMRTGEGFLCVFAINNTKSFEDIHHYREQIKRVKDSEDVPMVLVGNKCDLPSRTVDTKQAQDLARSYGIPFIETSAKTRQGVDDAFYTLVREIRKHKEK

| SMILES | IC50 [1, 2] [nM] | IC50 (MIA PaCa-2 cells) [nM] | IC50 [1, 3] [nM] |
| --- | --- | --- | --- |
| CO[C@H]1CC[C@H](NC/C=C/C(=O)Nc2c(F)cc(C(=O)c3cn4c5c(cccc35)-c3c(cccc3C(F)(F)F)OCC4)cc2F)CC1 (single isomer, unassigned) [Example 11-1] | > 6700 | 7800 | – |
| CO[C@H]1CC[C@H](NC/C=C/C(=O)Nc2c(F)cc(C(=O)c3cn4c5c(cccc35)-c3c(cccc3C(F)(F)F)OCC4)cc2F)CC1 (single isomer, unassigned) [Example 11-2] | 77 | 91 | – |
| CO[C@H]1CC[C@H](NC/C=C/C(=O)Nc2c(F)cc(C(=O)c3cn4c5c(cccc35)-c3c(C(F)(F)F)cc5c(nc(C)n5C)c3OCC4)cc2F)CC1 (single isomer, unassigned) [Example 12-1, (E)-N-(4-(8,9-dimethyl-6-(trifluoromethyl)-12,13-dihydro-8H-imidazo[4″,5″:3′,4′]benzol[1′,2′:7,8][1,4]oxazocino[6,5,4-hi]indole-2-carbonyl)-2,6-difluorophenyl)-4-(((1r,4r)-4-methoxycyclohexyl)amino)but-2-enamide] | 5 | 1 | – |
| CO[C@H]1CC[C@H](NC/C=C/C(=O)Nc2c(F)cc(C(=O)c3cn4c5c(cccc35)-c3c(C(F)(F)F)cc5c(nc(C)n5C)c3OCC4)cc2F)CC1 (single isomer, unassigned) [Example 12-2, (E)-N-(4-(8,9-dimethyl-6-(trifluoromethyl)-12,13-dihydro-8H-imidazo[4″,5″:3′,4′]benzol[1′,2′:7,8][1,4]oxazocino[6,5,4-hi]indole-2-carbonyl)-2,6-difluorophenyl)-4-(((1r,4r)-4-methoxycyclohexyl)amino)but-2-enamide] | > 6700 | 1600 | – |
| CO[C@H]1CC[C@H](NC/C=C/C(=O)Nc2c(F)cc(C(=O)c3cn4c5c(cccc35)-c3c(C)cc5c(nc(C)n5C)c3OCC4)cc2F)CC1 (single isomer, unassigned) [Example 14-1, (E)-N-(2,6-difluoro-4-(6,8,9-trimethyl-12,13-dihydro-8H-imidazo[4″,5″:3′,4′]benzo[1′,2′:7,8][1,4]oxazocino[6,5,4-hi]indole-2-carbonyl)phenyl)-4-(((11,4r)-4-methoxycyclohexyl)amino)but-2-enamide] | 9 | 17 | – |
| CO[C@H]1CC[C@H](NC/C=C/C(=O)Nc2c(F)cc(C(=O)c3cn4c5c(cccc35)-c3c(C)cc5c(nc(C)n5C)c3OCC4)cc2F)CC1 (single isomer, unassigned) [Example 14-2, (E)-N-(2,6-difluoro-4-(6,8,9-trimethyl-12,13-dihydro-8H-imidazo[4″,5″:3′,4′]benzo[1′,2′:7,8][1,4]oxazocino[6,5,4-hi]indole-2-carbonyl)phenyl)-4-(((11,4r)-4-methoxycyclohexyl)amino)but-2-enamide] | > 6700 | 3700 | – |
| CO[C@H]1CC[C@H](NC/C=C/C(=O)Nc2c(F)cc(C(=O)c3cn4c5c(cccc35)-c3c(C)cc5c(nc(C)n5C)c3OCCC4)cc2F)CC1 (single isomer, unassigned) [Example 15-1, (E)-N-(2,6-difluoro-4-(6,8,9-trimethyl-13,14-dihydro-8H,12H-imidazo[4″,5″:3′,4′]benzo[1′,2″:8,9][1,5]oxazonino[7,6,5-hi]indole-2-carbonyl)phenyl)-4-(((1r,4r)-4-methoxycyclohexyl)amino)but-2-enamide] | 3900 | 2700 | – |
| CO[C@H]1CC[C@H](NC/C=C/C(=O)Nc2c(F)cc(C(=O)c3cn4c5c(cccc35)-c3c(C)cc5c(nc(C)n5C)c3OCCC4)cc2F)CC1 (single isomer, unassigned) [Example 15-2, (E)-N-(2,6-difluoro-4-(6,8,9-trimethyl-13,14-dihydro-8H,12H-imidazo[4″,5″:3′,4′]benzo[1′,2″:8,9][1,5]oxazonino[7,6,5-hi]indole-2-carbonyl)phenyl)-4-(((1r,4r)-4-methoxycyclohexyl)amino)but-2-enamide] | 35 | 27 | – |
| CO[C@H]1CC[C@H](NC/C=C/C(=O)Nc2c(F)cc(C(=O)c3cn4c5c(cccc35)-c3c(C)cc5c(nc(C)n5C)c3OCC3(CC3)C4)cc2F)CC1 (single isomer, unassigned) [Example 21-1, (E)-N-(2,6-difluoro-4-(6′,8′,9′-trimethyl-8′H, 12′H,14′H-spiro[cyclopropane-1,13-imidazo[4″,5″:3′,4′]benzo[1′,2:8,9][1,5]oxazonino[7,6,5-hi]indole]-2′-carbonyl)phenyl)-4-(((1r,4t)-4-methoxycyclohexyl)amino)but-2-enamide] | 44 | 22 | – |
| CO[C@H]1CC[C@H](NC/C=C/C(=O)Nc2c(F)cc(C(=O)c3cn4c5c(cccc35)-c3c(C)cc5c(nc(C)n5C)c3OCC3(CC3)C4)cc2F)CC1 (single isomer, unassigned) [Example 21-2, (E)-N-(2,6-difluoro-4-(6′,8′,9′-trimethyl-8′H, 12′H,14′H-spiro[cyclopropane-1,13-imidazo[4″,5″:3′,4′]benzo[1′,2:8,9][1,5]oxazonino[7,6,5-hi]indole]-2′-carbonyl)phenyl)-4-(((1r,4t)-4-methoxycyclohexyl)amino)but-2-enamide] | 2800 | 1500 | – |
| CO[C@H]1CC[C@H](NC/C=C/C(=O)Nc2c(F)cc(C(=O)c3cn4c5c(cccc35)-c3c(C)cc5c(nc(C)n5C)c3OC[C@H](C)C4)cc2F)CC1 (single isomer, unassigned) [Example 23] | 19 | 13 | – |
| CO[C@H]1CC[C@H](NC/C=C/C(=O)Nc2c(F)cc(C(=O)c3cn4c5c(cccc35)-c3c(C)cc5c(nc(C)n5C)c3OC[C@H](C)C4)cc2F)CC1 (single isomer, unassigned) [Example 24] | 1800 | 1100 | – |
| CO[C@H]1CC[C@H](NC/C=C/C(=O)Nc2c(F)cc(C(=O)c3cc4c5c(cccn35)-c3c(C(F)(F)F)cc5c(nc(C)n5C)c3OCC4)cc2F)CC1 (single isomer, unassigned) [Example 30-1, (E)-N-(4-(9,10-dimethyl-7-(trifluoromethyl)-13,14-dihydro-9H-imidazo[4″,5″:5′,6′]benzo[1′,2′:2,3]oxocino[4,5,6-hi]indolizine-2-carbonyl)-2,6-difluorophenyl)-4-(((1r,4r)-4-methoxycyclohexyl)amino)but-2-enamide] | – | 3 | 7 |
| CO[C@H]1CC[C@H](NC/C=C/C(=O)Nc2c(F)cc(C(=O)c3cc4c5c(cccn35)-c3c(C(F)(F)F)cc5c(nc(C)n5C)c3OCC4)cc2F)CC1 (single isomer, unassigned) [Example 30-2, (E)-N-(4-(9,10-dimethyl-7-(trifluoromethyl)-13,14-dihydro-9H-imidazo[4″,5″:5′,6′]benzo[1′,2′:2,3]oxocino[4,5,6-hi]indolizine-2-carbonyl)-2,6-difluorophenyl)-4-(((1r,4r)-4-methoxycyclohexyl)amino)but-2-enamide] | – | 1600 | 6000 |
| Cc1nc2c3c(c(C(F)(F)F)cc2n1C)-c1cccn2c(C(=O)c4cc(F)c(NC(=O)/C=C/CNC5(C)COC5)c(F)c4)cc(c12)CCO3 (single isomer, unassigned) [Example 31-1, (E)-N-(4-(9,10-dimethyl-7-(trifluoromethyl)-13,14-dihydro-9H-imidazo[4″,5″:5′,6′]benzo[1′,2′:2,3]oxocino[4,5,6-hi]indolizine-2-carbonyl)-2,6-difluorophenyl)-4-((3-methyloxetan-3-yl)amino)but-2-enamide] | – | 7 | 11 |
